Results reported in US20160175284A1, “ESTROGEN RECEPTOR MODULATORS AND USES THEREOF” (Genentech, Inc., priority 2014, published 2016).

target: T1, estrogen receptor alpha (ESR1) in MCF7 breast cancer cells (Homo sapiens, UniProt P03372); test: Breast Cancer Cell ERa High Content Fluorescence Imaging Assay (F10); format: cell-based; conditions: 4 hours, plateau of the maximal effect, DMSO and 5 nM Fulvestrant define 0% and 100% changes in ESR1
T1 construct: endogenous in cells; host or cells: MCF7 breast cancer cells
T1 sequence (P03372 1-595): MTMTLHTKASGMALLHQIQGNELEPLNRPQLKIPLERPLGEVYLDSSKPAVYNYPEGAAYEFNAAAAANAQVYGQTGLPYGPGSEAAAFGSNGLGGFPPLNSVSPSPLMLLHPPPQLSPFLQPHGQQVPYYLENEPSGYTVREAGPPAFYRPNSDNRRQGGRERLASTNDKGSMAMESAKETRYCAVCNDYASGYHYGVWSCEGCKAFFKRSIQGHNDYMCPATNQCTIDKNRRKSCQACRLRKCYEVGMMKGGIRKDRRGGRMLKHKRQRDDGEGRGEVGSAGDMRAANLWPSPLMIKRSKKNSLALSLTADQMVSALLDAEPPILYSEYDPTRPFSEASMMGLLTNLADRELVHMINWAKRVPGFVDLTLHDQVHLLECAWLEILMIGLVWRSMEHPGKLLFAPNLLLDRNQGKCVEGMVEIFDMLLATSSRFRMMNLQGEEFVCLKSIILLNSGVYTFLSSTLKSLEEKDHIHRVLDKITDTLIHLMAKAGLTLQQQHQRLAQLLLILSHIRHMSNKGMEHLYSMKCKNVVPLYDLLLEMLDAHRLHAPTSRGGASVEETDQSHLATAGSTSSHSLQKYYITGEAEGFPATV
Experimental: Breast Cancer Cell ERa High Content Fluorescence Imaging Assay (F10)
Cell plates were incubated at 37° C., for 4 hours. Fixation and permeabilization were carried out using a Biotek EL406 plate washer and dispenser as follows. […] Samples were incubated 30 minutes. Well contents was aspirated and 50 ul/well of Phosphate Buffered Saline (PBS) containing 0.5% w/v bovine serum albumen, 0.5% v/v Triton X-100 (Antibody Dilution Buffer) was added to each well. Samples were incubated for 30 minutes. Well contents were aspirated and washed 3 times with 100 ul/well of PBS. Immunofluorescence staining of estrogen receptor alpha (ESR1) was carried out using a Biotek EL406 plate washer and dispenser as follows. […] Samples were incubated for 2 hours at room temperature. Samples were washed 4 times with 100 ul/well of PBS. […] Samples were incubated for 2 hours at room temperature. Samples were washed 3 times with 100 ul/well of PBS using a Biotek EL406. Quantitative fluorescence imaging of ESR1 was carried out using a Cellomics Arrayscan V (Thermo). […] Channel 1 (DNA stain) was used to define the nuclear region (Circ). […] Data analysis was carried out using Genedata Screener Software, with DMSO and 5 nM Fulvestrant treated samples being used to define the 0% and 100% changes in ESR1. The “Robust Fit” method was used to define the inflexion point of curve (EC50) and the plateau of the maximal effect (Sinf).

SMILES | ER-alpha MCF7 HCS Sinf (%)
CC1=C(c2ccc(Cl)c(F)c2)C(c2ccc(OC[C@H](C)N3CC[C@@H](CF)C3)cc2)Oc2ccc(O)cc21 (stereo partly drawn) [Example 1, 3-(4-Chloro-3-fluorophenyl)-2-(4-((S)-2-((R)-3-(fluoromethyl)pyrrolidin-1-yl)propoxy)phenyl)-4-methyl-2H-chromen-6-ol] | −91
CC1=C(c2ccc(Cl)c(F)c2)C(c2ccc(OCCN3CC[C@@H](CF)C3)cc2)Oc2ccc(O)cc21 (stereo partly drawn) [Example 2] | −95
C#Cc1cc(O)cc(C2=C(C)c3cc(O)ccc3OC2c2ccc(OC[C@H](C)N3CC[C@@H](CF)C3)cc2)c1 (stereo partly drawn) [Example 3, 3-(3-Ethynyl-5-hydroxyphenyl)-2-(4-((S)-2-((R)-3-(fluoromethyl)pyrrolidin-1-yl)propoxy)phenyl)-4-methyl-2H-chromen-6-ol] | −94
CC1=C(c2cccc(F)c2F)C(c2ccc(OCCN3CC(CF)C3)cc2)Oc2ccc(O)cc21 (stereo not drawn) [Example 4, 3-(2,3-Difluorophenyl)-2-(4-(2-(3-(fluoromethyl)azetidin-1-yl)ethoxy)phenyl)-4-methyl-2H-chromen-6-ol] | −98
CC1=C(c2cccc(F)c2Cl)C(c2ccc(OCCN3CC(CF)C3)cc2)Oc2ccc(O)cc21 (stereo not drawn) [Example 5] | −98
CC1=C(c2ccc(F)cc2C)C(c2ccc(OCCN3CC(CF)C3)cc2)Oc2ccc(O)cc21 (stereo not drawn) [Example 6, 3-(4-Fluoro-2-methylphenyl)-2-(4-(2-(3-(fluoromethyl)azetidin-1-yl)ethoxy)phenyl)-4-methyl-2H-chromen-6-ol] | −96
CC1=C(c2cc(F)ccc2C)C(c2ccc(OCCN3CC(CF)C3)cc2)Oc2ccc(O)cc21 (stereo not drawn) [Example 7, 3-(5-Fluoro-2-methylphenyl)-2-(4-(2-(3-(fluoromethyl)azetidin-1-yl)ethoxy)phenyl)-4-methyl-2H-chromen-6-ol] | −99
CC1=C(c2ccc(S(C)(=O)=O)cc2)C(c2ccc(OCCN3CC(CF)C3)cc2)Oc2ccc(O)cc21 (stereo not drawn) [Example 8, 2-(4-(2-(3-(fluoromethyl)azetidin-1-yl)ethoxy)phenyl)-4-methyl-3-(4-(methylsulfonyl)phenyl)-2H-chromen-6-ol] | −90
CC1=C(c2cccc(S(C)(=O)=O)c2)C(c2ccc(OCCN3CC(CF)C3)cc2)Oc2ccc(O)cc21 (stereo not drawn) [Example 9, 2-(4-(2-(3-(Fluoromethyl)azetidin-1-yl)ethoxy)phenyl)-4-methyl-3-(3-(methylsulfonyl)phenyl)-2H-chromen-6-ol] | −99
CC(=O)Nc1cccc(C2=C(C)c3cc(O)ccc3OC2c2ccc(OCCN3CC(CF)C3)cc2)c1 (stereo not drawn) [Example 10, N-(3-(2-(4-(2-(3-(Fluoromethyl)azetidin-1-yl)ethoxy)phenyl)-6-hydroxy-4-methyl-2H-chromen-3-yl)phenyl)acetamide] | −94
CC(=O)Nc1ccc(C2=C(C)c3cc(O)ccc3OC2c2ccc(OCCN3CC(CF)C3)cc2)cc1 (stereo not drawn) [Example 11, N-(4-(2-(4-(2-(3-(Fluoromethyl)azetidin-1-yl)ethoxy)phenyl)-6-hydroxy-4-methyl-2H-chromen-3-yl)phenyl)acetamide] | −93
CC1=C(c2cccc(NS(C)(=O)=O)c2)C(c2ccc(OCCN3CC(CF)C3)cc2)Oc2ccc(O)cc21 (stereo not drawn) [Example 12, N-(3-(2-(4-(2-(3-(Fluoromethyl)azetidin-1-yl)ethoxy)phenyl)-6-hydroxy-4-methyl-2H-chromen-3-yl)phenyl)methanesulfonamide] | −93
CC1=C(c2ccc(NS(C)(=O)=O)cc2)C(c2ccc(OCCN3CC(CF)C3)cc2)Oc2ccc(O)cc21 (stereo not drawn) [Example 13, N-(4-(2-(4-(2-(3-(Fluoromethyl)azetidin-1-yl)ethoxy)phenyl)-6-hydroxy-4-methyl-2H-chromen-3-yl)phenyl)methanesulfonamide] | −68
CC1=C(c2cccc(C(N)=O)c2)C(c2ccc(OCCN3CC(CF)C3)cc2)Oc2ccc(O)cc21 (stereo not drawn) [Example 14, 3-(2-(4-(2-(3-(Fluoromethyl)azetidin-1-yl)ethoxy)phenyl)-6-hydroxy-4-methyl-2H-chromen-3-yl)benzamide] | −97
CC1=C(c2ccc(C(N)=O)cc2)C(c2ccc(OCCN3CC(CF)C3)cc2)Oc2ccc(O)cc21 (stereo not drawn) [Example 15, 4-(2-(4-(2-(3-(Fluoromethyl)azetidin-1-yl)ethoxy)phenyl)-6-hydroxy-4-methyl-2H-chromen-3-yl)benzamide] | −99
CC1=C(c2ccc(CO)cc2)C(c2ccc(OCCN3CC(CF)C3)cc2)Oc2ccc(O)cc21 (stereo not drawn) [Example 16, 2-(4-(2-(3-(Fluoromethyl)azetidin-1-yl)ethoxy)phenyl)-3-(4-(hydroxymethyl)phenyl)-4-methyl-2H-chromen-6-ol] | −99
CC1=C(c2cccc(CO)c2)C(c2ccc(OCCN3CC(CF)C3)cc2)Oc2ccc(O)cc21 (stereo not drawn) [Example 17, 2-(4-(2-(3-(Fluoromethyl)azetidin-1-yl)ethoxy)phenyl)-3-(3-(hydroxymethyl)phenyl)-4-methyl-2H-chromen-6-ol] | −101
CC1=C(c2ccc(C#N)c(Cl)c2)C(c2ccc(OCCN3CC(CF)C3)cc2)Oc2ccc(O)cc21 (stereo not drawn) [Example 18, 2-Chloro-4-(2-(4-(2-(3-(fluoromethyl)azetidin-1-yl)ethoxy)phenyl)-6-hydroxy-4-methyl-2H-chromen-3-yl)benzonitrile] | −99
CC1=C(c2cc(F)cc(F)c2)[C@@H](c2ccc(OCCN3CC(CF)C3)cc2)Oc2ccc(O)cc21 [Example 19, (R)- and (S)-3-(3,5-Difluorophenyl)-2-(4-(2-(3-(fluoromethyl)azetidin-1-yl)ethoxy)phenyl)-4-methyl-2H-chromen-6-ol] | −50
CC1=C(c2cc(F)cc(F)c2)[C@H](c2ccc(OCCN3CC(CF)C3)cc2)Oc2ccc(O)cc21 [Example 20, (R)- and (S)-3-(3,5-Difluorophenyl)-2-(4-(2-(3-(fluoromethyl)azetidin-1-yl)ethoxy)phenyl)-4-methyl-2H-chromen-6-ol] | −103
CC1=C(c2cccc(O)c2)C(c2ccc(OCCN3CC(CF)C3)cc2)Oc2cc(Cl)c(O)cc21 (stereo not drawn) [Example 26, 7-Chloro-2-(4-(2-(3-(fluoromethyl)azetidin-1-yl)ethoxy)phenyl)-3-(3-hydroxyphenyl)-4-methyl-2H-chromen-6-ol] | −93
CC1=C(c2ccc(F)cc2)C(c2ccc(OCCN3CC(CF)C3)cc2)Oc2cc(C)c(O)cc21 (stereo not drawn) [Example 29, 2-{4-[2-(3-Fluoromethyl-azetidin-1-yl)-ethoxy]-phenyl}-3-(4-fluoro-phenyl)-4,7-dimethyl-2H-chromen-6-ol] | −90
CC1=C(c2ccc(F)cc2)C(c2ccc(OCCN3CC(CF)C3)cc2)Oc2cc(C#N)c(O)cc21 (stereo not drawn) [Example 30, 2-{4-[2-(3-Fluoromethyl-azetidin-1-yl)-ethoxy]-phenyl}-3-(4-fluorophenyl)-6-hydroxy-4-methyl-2H-chromene-7-carbonitrile] | −92
CC1=C(c2ccc(F)cc2Cl)C(c2ccc(OCCN3CC(CF)C3)cc2)Oc2ccc(O)cc21 (stereo not drawn) [Example 32, 3-(2-chloro-4-fluoro-phenyl)-2-[4-[2-[3-(fluoromethyl)azetidin-1-yl]ethoxy]phenyl]-4-methyl-2H-chromen-6-ol] | −99
